Results published in publication PMC10120462, “Styrylquinazoline derivatives as ABL inhibitors selective for different DFG orientations” (Journal of Enzyme Inhibition and Medicinal Chemistry, 2023).

How the values were obtained:
[1] = test system: NHDF; experiment: Cytotoxicity studies (MTS), normal fibroblasts; type: cell-based; conditions: 72 h, normal human fibroblasts, read-out: Antiproliferative activity IC50 NHDF
From the text: In contrast, the other cell lines studied represent common cancers found in the human population. Nevertheless, these cell lines are characterised by a different landscape of kinase expression, as reported in[36]. In chronic leukaemia cells, an aberration of the Philadelphia chromosome is common in which a fragment of chromosome 9 is displaced to chromosome 22, leading to the formation of the oncogenic protein BCR-ABL. The altered structure of the protein leads to abnormal activity that promotes excessive growth and differentiation of cells even in the absence of growth factors, as well as inhibition of apoptosis and formation of metastases. Moreover, the status of the TP53 gene in leukaemia is not insignificant. Mutations of the TP53 gene occur in more than 50% of all cancers, leading to increased metastasis and an overall poor prognosis[38]^,[39]. The p53 protein encoded by this gene plays a pivotal role in controlling cell division or cell fate when damage is detected. […] Therefore, interaction between the signalling network of the BCR-ABL pathway and p53 often results in an impairment of p53 function and survival[43]^,[44]. […] Selectivity studies were performed on normal human fibroblast – NHDF cell line.
M. Rusin from the Maria Sklodowska-Curie Memorial Cancer Centre and Institute of Oncology in Gliwice, Poland. […] G. Kramer-Marek from the Institute of Cancer Research in London, United Kingdom. The human suspension chronic myeloids leukaemia cell line K562 and the pancreatic ductal adenocarcinoma cell line PANC-1 were purchased from Merck. The normal human dermal fibroblasts cell line NHDF were obtained from PromoCell. All adherent cancer cell lines were cultured in Dulbecco’s Modified Eagle’s medium (DMEM) supplemented with 10% heat-inactivated foetal bovine serum – FBS (all from Merck). […] Each complete medium contained a mixture of two antibiotics - penicillin and streptomycin (1% v/v; Gibco). Cell lines were cultured at 37 °C with 5% CO2 humidified atmosphere.
The assay was carried out after 72 h of incubation with different concentrations of the tested compounds. Then DMEM without phenol red was added to each well with CellTiter 96®AQueous One Solution-MTS (Promega) solution and incubated for 1 h or 3 h (PANC-1) at 37 °C. The optical densities of the samples were measured at 490 nm using a multi-plate reader (Synergy 4, BioTek). […] Each compound was tested in triplicate in a single experiment and each experiment was performed three or four times.

[2] = target: T1, CSK (Homo sapiens, UniProt P41240); experiment: Tyrosine kinase assay (Kinase Selectivity System TK-2, ADP-Glo); type: biochemical; conditions: 1 h incubation, mean ± SD of four experiments
T1 construct: purchased Promega
T1 sequence (P41240 whole entry): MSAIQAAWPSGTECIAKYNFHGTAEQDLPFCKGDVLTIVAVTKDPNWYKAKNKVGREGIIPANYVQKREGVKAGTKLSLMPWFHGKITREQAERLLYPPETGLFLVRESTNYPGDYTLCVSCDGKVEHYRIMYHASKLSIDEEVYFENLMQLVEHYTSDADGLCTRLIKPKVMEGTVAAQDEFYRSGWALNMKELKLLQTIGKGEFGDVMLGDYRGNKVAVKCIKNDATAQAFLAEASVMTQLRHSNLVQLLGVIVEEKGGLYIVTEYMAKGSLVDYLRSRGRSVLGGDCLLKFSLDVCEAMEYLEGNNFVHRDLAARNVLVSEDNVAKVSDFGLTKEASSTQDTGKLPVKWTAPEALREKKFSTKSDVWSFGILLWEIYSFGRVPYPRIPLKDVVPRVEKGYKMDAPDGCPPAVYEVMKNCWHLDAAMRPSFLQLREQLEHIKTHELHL

[3] = target: T2, Lck (Homo sapiens, UniProt P06239); experiment: as above; type: biochemical; conditions: 1 h incubation, mean ± SD of four experiments
T2 construct: purchased Promega
T2 sequence (P06239 whole entry): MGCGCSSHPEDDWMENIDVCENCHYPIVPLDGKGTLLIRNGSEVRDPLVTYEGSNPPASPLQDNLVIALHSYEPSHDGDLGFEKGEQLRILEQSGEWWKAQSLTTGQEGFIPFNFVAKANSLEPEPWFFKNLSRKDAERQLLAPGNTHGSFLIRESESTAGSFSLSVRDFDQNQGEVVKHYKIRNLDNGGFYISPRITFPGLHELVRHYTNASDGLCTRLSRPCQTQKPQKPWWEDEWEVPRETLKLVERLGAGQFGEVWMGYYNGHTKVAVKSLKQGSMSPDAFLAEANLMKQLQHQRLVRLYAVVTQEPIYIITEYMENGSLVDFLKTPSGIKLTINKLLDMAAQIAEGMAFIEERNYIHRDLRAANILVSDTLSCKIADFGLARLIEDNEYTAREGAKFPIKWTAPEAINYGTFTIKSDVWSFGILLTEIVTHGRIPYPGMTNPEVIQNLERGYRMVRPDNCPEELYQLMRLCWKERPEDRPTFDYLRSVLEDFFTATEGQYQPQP

[4] = target: T3, BTK (Homo sapiens, UniProt Q06187); experiment: as above; type: biochemical; conditions: 1 h incubation, mean ± SD of four experiments
T3 construct: purchased Promega
T3 sequence (Q06187 whole entry): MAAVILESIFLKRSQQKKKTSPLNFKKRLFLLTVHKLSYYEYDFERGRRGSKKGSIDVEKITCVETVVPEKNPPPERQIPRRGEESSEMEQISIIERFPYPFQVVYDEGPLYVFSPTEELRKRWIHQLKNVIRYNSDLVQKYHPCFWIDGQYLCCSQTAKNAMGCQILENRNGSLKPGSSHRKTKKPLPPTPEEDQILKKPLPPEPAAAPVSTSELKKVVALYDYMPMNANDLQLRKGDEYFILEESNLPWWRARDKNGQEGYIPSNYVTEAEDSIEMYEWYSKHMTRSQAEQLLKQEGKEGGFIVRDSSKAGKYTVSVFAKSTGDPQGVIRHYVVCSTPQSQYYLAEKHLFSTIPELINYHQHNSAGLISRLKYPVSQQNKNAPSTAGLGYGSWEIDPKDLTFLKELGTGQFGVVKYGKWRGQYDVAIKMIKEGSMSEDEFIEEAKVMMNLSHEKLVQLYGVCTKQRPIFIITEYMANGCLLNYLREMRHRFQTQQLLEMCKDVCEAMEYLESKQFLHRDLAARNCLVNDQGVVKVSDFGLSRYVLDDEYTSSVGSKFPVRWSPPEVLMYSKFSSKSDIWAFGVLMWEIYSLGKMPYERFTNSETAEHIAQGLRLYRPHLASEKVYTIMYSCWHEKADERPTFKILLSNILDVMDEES

[5] = target: T4, ABL (Homo sapiens, UniProt P00519); experiment: as above; type: biochemical; conditions: 1 h incubation, mean ± SD of four experiments
T4 construct: purchased Promega
T4 sequence (P00519 whole entry): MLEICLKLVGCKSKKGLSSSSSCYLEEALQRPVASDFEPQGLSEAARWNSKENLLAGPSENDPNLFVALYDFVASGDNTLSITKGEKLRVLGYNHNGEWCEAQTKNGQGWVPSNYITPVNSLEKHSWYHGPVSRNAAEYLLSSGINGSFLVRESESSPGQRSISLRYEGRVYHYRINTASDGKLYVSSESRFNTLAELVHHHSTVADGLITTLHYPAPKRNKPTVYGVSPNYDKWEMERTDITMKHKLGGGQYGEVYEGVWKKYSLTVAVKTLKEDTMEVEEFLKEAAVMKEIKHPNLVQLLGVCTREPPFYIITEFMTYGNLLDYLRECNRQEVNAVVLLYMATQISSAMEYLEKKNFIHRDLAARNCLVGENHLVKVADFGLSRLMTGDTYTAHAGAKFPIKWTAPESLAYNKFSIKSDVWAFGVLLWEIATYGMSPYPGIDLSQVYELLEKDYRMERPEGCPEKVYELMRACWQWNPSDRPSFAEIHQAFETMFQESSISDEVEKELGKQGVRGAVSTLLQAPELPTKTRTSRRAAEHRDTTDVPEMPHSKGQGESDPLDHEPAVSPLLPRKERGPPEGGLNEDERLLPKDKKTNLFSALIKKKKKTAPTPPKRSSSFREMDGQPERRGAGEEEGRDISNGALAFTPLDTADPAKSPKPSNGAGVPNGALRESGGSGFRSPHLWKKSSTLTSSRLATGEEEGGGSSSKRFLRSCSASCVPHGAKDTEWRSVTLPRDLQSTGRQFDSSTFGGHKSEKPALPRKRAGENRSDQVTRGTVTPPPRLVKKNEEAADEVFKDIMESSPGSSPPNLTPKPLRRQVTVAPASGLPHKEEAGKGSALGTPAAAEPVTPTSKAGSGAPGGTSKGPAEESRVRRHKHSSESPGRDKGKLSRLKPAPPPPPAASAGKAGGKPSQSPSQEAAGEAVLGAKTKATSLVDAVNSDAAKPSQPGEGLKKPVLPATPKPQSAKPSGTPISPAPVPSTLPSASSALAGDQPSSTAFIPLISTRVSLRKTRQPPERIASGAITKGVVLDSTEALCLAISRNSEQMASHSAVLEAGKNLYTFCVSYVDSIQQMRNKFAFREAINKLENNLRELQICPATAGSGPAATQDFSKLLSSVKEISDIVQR

[6] = test system: U-251; experiment: Cytotoxicity studies (MTS), antiproliferative activity; type: cell-based, human; conditions: for IC50: Homo sapiens, U-251, 72 h, MTS; for Selectivity index U-251: versus NHDF
Outline: (§1)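 Absorbance at 490 nm after 1 h MTS incubation at 37 °C was the read-out, following 72 h treatment of cultured cells with various concentrations of test compound.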

[7] = test system: HCT 116 p53−/−; experiment: as above; type: cell-based, human; conditions: for IC50: Homo sapiens, HCT-116, 72 h, MTS; for Selectivity index HCT 116 p53-/-: versus NHDF
Outline: as §1

[8] = test system: HCT 116 p53+/+; experiment: as above; type: cell-based, human; conditions: for IC50: Homo sapiens, HCT-116, 72 h, MTS; for Selectivity index HCT 116 p53+/+: versus NHDF
Outline: as §1

[9] = test system: MCF-7; experiment: as above; type: cell-based, human; conditions: for IC50: Homo sapiens, MCF7, 72 h, MTS; for Selectivity index MCF-7: versus NHDF
Outline: as §1

[10] = test system: PANC-1; experiment: as above; type: cell-based, human; conditions: for IC50: Homo sapiens, PANC-1, 72 h, MTS; for Selectivity index PANC-1: versus NHDF
[11] = test system: A549; experiment: as above; type: cell-based, human; conditions: for IC50: Homo sapiens, A549, 72 h, MTS; for Selectivity index A549: versus NHDF
Outline: as §1

[12] = test system: K562; experiment: as above; type: cell-based, human; conditions: for IC50: Homo sapiens, K562, 72 h, MTS; for Selectivity index K562: versus NHDF
Outline: as §1

[13] = target: T5, Src (Homo sapiens, UniProt P12931); experiment: Tyrosine kinase assay (Kinase Selectivity System TK-2, ADP-Glo); type: biochemical; conditions: 1 h incubation, mean ± SD of four experiments
T5 construct: purchased Promega
T5 sequence (P12931 whole entry): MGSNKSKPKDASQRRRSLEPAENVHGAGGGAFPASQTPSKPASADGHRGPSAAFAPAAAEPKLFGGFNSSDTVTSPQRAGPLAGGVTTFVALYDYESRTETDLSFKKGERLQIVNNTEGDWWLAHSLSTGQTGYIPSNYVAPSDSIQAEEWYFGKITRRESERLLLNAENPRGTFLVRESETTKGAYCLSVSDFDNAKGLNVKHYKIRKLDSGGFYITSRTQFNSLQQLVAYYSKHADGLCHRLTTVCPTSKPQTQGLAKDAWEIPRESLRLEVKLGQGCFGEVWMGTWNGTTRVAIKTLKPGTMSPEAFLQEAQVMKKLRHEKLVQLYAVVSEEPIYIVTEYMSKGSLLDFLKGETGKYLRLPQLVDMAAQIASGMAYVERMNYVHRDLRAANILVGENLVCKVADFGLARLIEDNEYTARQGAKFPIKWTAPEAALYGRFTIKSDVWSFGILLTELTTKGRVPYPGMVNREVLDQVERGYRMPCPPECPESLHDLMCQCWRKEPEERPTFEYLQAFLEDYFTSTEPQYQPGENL

[14] = test system: K562 cells; experiment: Immunoblotting; type: cell-based, human; conditions: 16 h
From the text: Changes in the expression of the BCR-ABL and ABL proteins and their downstream targets, such as STAT5, Src, Akt and Fyn after treatment with the tested compounds were also examined. As shown in Figure 7(B), no significant changes in the phosphorylation of BCR-ABL were observed after treatment with the tested styrylquinazolines. […] For reference inhibitors, there were greater changes in the expression of this protein. There were also interesting changes in the downstream targets of ABL, STAT5 and Src. […] Unfortunately, contrary to our assumptions and earlier results, IS1 was ineffective in inhibiting ABL, STAT5, and Src phosphorylation at the concentrations used. However, this derivative caused downregulation of Fyn expression, which could confirm its high inhibitory potential from in vitro kinase assays. […] Thus, these compounds were capable of blocking the pro-survival pathway facilitated by Akt kinase.
Prior to the experiment, K562 cells were seeded at a density of 500,000 cells per well in 3 cm Petri dishes (Nunc). […] After 16 h of exposure, cells were collected, centrifuged, and lysed on ice in complete RIPA buffer containing Halt Protease Inhibitor Cocktail, Halt Phosphatase Inhibitor Cocktail and 0.5 M EDTA (all from Thermo Scientific). Protein quantification was measured using a BCA Protein Assay Kit (Thermo Scientific) according to the manufacturer’s protocol. Equal amounts of the proteins were electrophoresed on SDS-page gels and transferred to nitrocellulose membranes. After blocking in 5% non-fat milk prepared in TTBS (Tris buffered saline with Tween 20), membranes were incubated overnight at 4 °C with specific primary antibodies (all from Cell Signalling) at a dilution of 1:1000 for c-ABL, phospho-c-ABL, Stat5, phospho-Stat5, cyclin E1, p27, PARP, AIF, BID, Src, Fyn, Akt, phospho-Akt, and at a dilution of 1:2000 for reference proteins (vinculin, β-actin and GAPDH). The next day, membranes were washed and incubated with horseradish peroxidase (HRP)-conjugated secondary antibodies for 1 h at room temperature. Chemiluminescence signals were recorded after staining with SuperSignal™ West Pico Chemiluminescent Substrate (Thermo Scientific) using a ChemiDoc™ XRS + System (BioRad). Experiments were performed four to five times. Densitometric analysis was performed using ImageJ software (Wayne Rasband, National Institutes of Health, USA).

| Compound | IC50 [1] [µM] | inhibition at 0.5 µM [2] [%] | inhibition at 0.5 µM [3] [%] | inhibition at 0.5 µM [4] [%] | inhibition at 0.5 µM [5] [%] | IC50 [6] [µM] | Selectivity index U-251 [6] | IC50 [7] [µM] | Selectivity index HCT 116 p53-/- [7] | IC50 [8] [µM] | Selectivity index HCT 116 p53+/+ [8] | IC50 [9] [µM] | Selectivity index MCF-7 [9] | IC50 [10] [µM] | Selectivity index PANC-1 [10] | IC50 [11] [µM] | Selectivity index A549 [11] | IC50 [12] [µM] | Selectivity index K562 [12] | inhibition at 0.5 µM [13] [%] | also measured |
| --- | --- | --- | --- | --- | --- | --- | --- | --- | --- | --- | --- | --- | --- | --- | --- | --- | --- | --- | --- | --- | --- |
| COc1ccccc1/C=C/c1nc(Sc2ccc3c(c2)OCO3)c2ccccc2n1 [IS10, 5-{2-[(E)-2–(2-methoxyphenyl)ethenyl]quinazolin-4-ylthio}-2H-1,3-benzodioxole] | > 25 | 0 | 28.1 ± 5.74 | 15.9 ± 3.66 | 14.2 ± 3.91 | > 25 | 1.00 | 9.43 ± 1.49 | 2.65 | 10.7 ± 0.33 | 2.33 | 16.3 ± 3.22 | 1.54 | > 25 | 1.00 | > 25 | 1.00 | 2.04 ± 0.454 | > 12.24 | 0 | Decrease in p-STAT5 expression ([14]; 20 µM): more than three-fold decrease; ABL phosphorylation [14]: significant decrease (about two-fold); Decrease of the level of BID [14]: approximately 2 fold; Src protein expression / phosphorylation [14]: almost two-fold decrease; p27 expression [14]: more than two-fold increase; Inhibition of expression of Ser473 phosphorylated Akt ([14]; IS8 only at 25 µM): more than two-fold; Cyclin E1 protein level ([14]; IS8 only at 25 µM, IS10 40 and 20 µM): significantly downregulated |
| COc1ccccc1/C=C/c1nc(Sc2ccccc2Cl)c2ccccc2n1 [IS1, 2-[(E)-2–(2-methoxyphenyl)ethenyl]-4–(2-chlorophenylthio)quinazoline] | > 25 | 51.1 ± 5.72 | 79 | 89 ± 8.34 | ~91 | > 25 | 1.00 | > 25 | 1.00 | > 25 | 1.00 | 18.5 ± 3.87 | 1.35 | > 25 | 1.00 | > 25 | 1.00 | 6.43 ± 1.2 | > 3.89 | 79 | Inhibition of tyrosine kinase activity [%] Lck ([3]; 0.5 μM): 79.08 ± 3.51%; Inhibition of tyrosine kinase activity [%] ABL ([5]; 0.5 μM): 90.81 ± 5.71%; Inhibition of tyrosine kinase activity [%] Src ([13]; 0.5 μM): 79.52 ± 9.56%; ABL phosphorylation [14]: ineffective; AIF protein [14]: significant increase; Fyn expression [14]: downregulation; Src protein expression / phosphorylation [14]: ineffective; STAT5 phosphorylation ([14]; at the concentrations used): ineffective |
